In US4791215A, “Derivatives of glutamic acid and aspartic acid” (priority 1984, dated 1988):
Like-named read-outs stand apart in the source and are kept apart here.

Key:
[1] = test system: pancreatic adenocarcinoma; assay type: in vivo, hamsters
Description: (§1) The anti-cholecystokinin effect of the most powerful of the compounds which are the subject of the present invention, that is the compound C-7, on the trophic activity of CCK on normal pancreatic cells and on those of a pancreatic adenocarcinoma is to be studied.
(§2) Male hamsters were inoculated in the cheek pouches with a suspension of 1×10^5 tumoral cells of a pancreatic adenocarcinoma. Five days after the inoculation the animals were divided at random into 4 groups of 10 animals each, that is, a control group, a group of animals treated with 10 μg/kg of CCK-8 three times a day, a group of animals treated with 5 mg/kg i.p. of compound C-7 three times a day, and a fourth group treated simultaneously with the compound C-7 and CCK-8 in the manner described above.
(§3) After 15 days of this treatment, the animals were killed, and the normal pancreas and the inoculated pancreatic tumours in the cheek pouches were collected and weighed. The DNA was extracted and measured according to conventional techniques.
(§4) The results thus obtained are given in Table 13, expressed as mean values (±S.E.)

normal pancreatic cells = assay: Trophic action of CCK-8 on normal pancreas; assay type: in vivo, hamsters
Description: as §1, §2, §3, §4

[2] = 10 mcg/kg CCK-8 + compound 5 mg/kg, 3 times a day
[3] = compound 5 mg/kg i.p. 3 times per day

CCCCCN(CCCCC)C(=O)C(CCC(=O)O)NC(=O)c1ccc(Cl)c(Cl)c1 (stereo not drawn) [Compound C-7]
TUMORAL DNA [1, 2]: 0.4 ± 0.02 mg | Weight of Pancreatic Carcinoma [1, 2]: 109.5 ± 6.2 mg | TUMORAL DNA [1, 3]: 0.42 ± 0.02 mg | Weight of Pancreatic Carcinoma [1, 3]: 104 ± 7.5 mg | effect on growth of pancreatic adenocarcinoma / CCK-8 actions ([1]; hamster, in vivo): antagonises both these actions of CCK-8 in a higly significant manner | Pancreas weight (normal pancreatic cells; [2]): 374 ± 25.4 mg | Pancreatic DNA (normal pancreatic cells; [2]): 1.0 ± 0.08 mg | Pancreas weight (normal pancreatic cells; [3]): 336 ± 22.6 mg | Pancreatic DNA (normal pancreatic cells; [3]): 0.93 ± 0.09 mg
